Where two headings read alike, the source gives them in different places.
Legend:
5HT2A receptor [1] = molecular target: T1, 5HT2A receptor (Homo sapiens, UniProt P28223); assay: cell-based; set-up: expressed in transfected cells; host or cells: HEK293T cells, transient co-transfection; conditions: for Emax: HEK-293T
5HT2A receptor [2] = molecular target: T1, 5HT2A receptor; assay: biochemical; format: binding; set-up: expressed in transfected cells; crude membranes
5HT2A receptor [3] = molecular target: T1, 5HT2A receptor; assay: cell-based; set-up: expressed in transfected cells; host or cells: HEK293T cells, transient co-transfection; conditions: for Emax: HEK-293T; remark: listed apart in the source
[4] = 5HT2A β-Arr EC50 (nM), BRET1 beta-arrestin2 recruitment, HEK293T cells
[5] = BRET1 beta-arrestin2 recruitment, HEK293T cells, normalized to 5-HT, read-out: 5HT2A β-Arr Emax (%)
[6] = 5HT2A Ki (nM), secondary radioligand binding, Ki from IC50 by Cheng-Prusoff
[7] = BRET2 Gαq dissociation, HEK293T cells, read-out: 5HT2A Gq EC50
[8] = BRET2 Gαq dissociation, HEK293T cells, normalized to 5-HT, read-out: 5HT2A Gq Emax (%)
[9] = read-out: 5HT2A β-Arr Emax (%), BRET1 beta-arrestin2 recruitment, HEK293T cells, normalized to 5-HT
[10] = 5HT2A Gq EC50 (nM), BRET2 Gαq dissociation, HEK293T cells
[11] = read-out: 5HT2A Gq Emax (%), BRET2 Gαq dissociation, HEK293T cells, normalized to 5-HT
[12] = secondary radioligand binding, Ki from IC50 by Cheng-Prusoff, read-out: 5HT2A Ki
[13] = BRET1 beta-arrestin2 recruitment, HEK293T cells, read-out: 5HT2A β-Arr EC50
[14] = BRET1 beta-arrestin2 recruitment, HEK293T, read-out: 5HT2A β-Arr EC50
[15] = BRET1 beta-arrestin2 recruitment, HEK293T, normalized to 5-HT, read-out: 5HT2A β-Arr Emax (%)
[16] = 5HT2A Ki (nM), secondary binding assay, Cheng-Prusoff
[17] = BRET2 Gαq dissociation, HEK293T, read-out: 5HTA Gq EC50
[18] = BRET2 Gαq dissociation, HEK293T, normalized to 5-HT, read-out: 5HTA Gq Emax (%)
[19] = secondary binding assay, Cheng-Prusoff, read-out: 5HT2A Ki
[20] = 5HT2A β-Arr EC50 (nM), BRET1 beta-arrestin2 recruitment, HEK293T
[21] = 5HTA Gq EC50 (nM), BRET2 Gαq dissociation, HEK293T

T1 sequence (P28223 whole entry): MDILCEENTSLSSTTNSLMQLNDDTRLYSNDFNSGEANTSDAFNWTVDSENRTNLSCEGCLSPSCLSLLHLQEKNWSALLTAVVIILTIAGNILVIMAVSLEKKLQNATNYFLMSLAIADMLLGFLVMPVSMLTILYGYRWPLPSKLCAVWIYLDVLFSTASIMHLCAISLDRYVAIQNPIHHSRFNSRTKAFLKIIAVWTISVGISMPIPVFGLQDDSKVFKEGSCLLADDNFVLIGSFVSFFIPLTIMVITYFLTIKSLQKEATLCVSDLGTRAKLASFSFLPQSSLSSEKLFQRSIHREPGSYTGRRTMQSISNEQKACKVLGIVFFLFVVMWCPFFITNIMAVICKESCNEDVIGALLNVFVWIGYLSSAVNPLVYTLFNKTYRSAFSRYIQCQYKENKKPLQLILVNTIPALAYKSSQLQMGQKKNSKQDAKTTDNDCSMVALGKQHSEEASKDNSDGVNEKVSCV

Row | SMILES | EC50 (5HT2A receptor [1]; [4]) | Emax (5HT2A receptor [1]; [5]) | Ki (5HT2A receptor [2]; [6]) | Emax (5HT2A receptor [3]; [8]) | Emax (5HT2A receptor [1]; [15]) | Emax (5HT2A receptor [3]; [18]) | also measured
1 | CN1CCC=C(c2n[nH]c3c(Cl)cccc23)C1 [Example 106, 7-chloro-3-(1-methyl-1,2,5,6-tetrahydropyridin-3-yl)-1H-indazole] | 176 nM | 66.8% | 332 nM | 85.5% |  |  | EC50 (5HT2A receptor [3]; [7]): 39.1 nM
2 | CN1CCC=C(c2n[nH]c3c(F)cccc23)C1 [Example 107, 7-fluoro-3-(1-methyl-1,2,5,6-tetrahydropyridin-3-yl)-1H-indazole] | 213 nM |  | 883 nM |  |  |  | Emax (5HT2A receptor [1]; [9]): 36.3%; EC50 (5HT2A receptor [3]; [10]): 34.5 nM; Emax (5HT2A receptor [3]; [11]): 68.1%
3 | CN1CCC=C(c2n[nH]c3c(C#N)cccc23)C1 [Example 108, 3-(1-methyl-1,2,5,6-tetrahydropyridin-3-yl)-1H-indazole-7-carbonitrile] | 494 nM | 72.5% | 1380 nM | 102% |  |  | EC50 (5HT2A receptor [3]; [10]): 108 nM
4 | Clc1cccc2c(C3CCCNC3)n[nH]c12 (stereo not drawn) [Example 114, 7-chloro-3-(piperidin-3-yl)-1H-indazole] | 468 nM |  | 1240 nM |  |  |  | Emax (5HT2A receptor [1]; [9]): 29.3%; EC50 (5HT2A receptor [3]; [10]): 290 nM; Emax (5HT2A receptor [3]; [11]): 74.5%
5 | CN1CCC=C(c2c[nH]c3c(Cl)cc(F)cc23)C1 [Example 115, 7-chloro-5-fluoro-3-(1-methyl-1,2,5,6-tetrahydropyridin-3-yl)-1H-indole] | 576 nM | 59.7% |  | 114% |  |  | Ki (5HT2A receptor [2]; [12]): 20.8 nM; EC50 (5HT2A receptor [3]; [7]): 51.1 nM
6 | Cc1cc(F)cc2c(C3=CCCN(C)C3)c[nH]c12 [Example 116, 5-fluoro-7-methyl-3-(1-methyl-1,2,5,6-tetrahydropyridin-3-yl)-1H-indole] | 129 nM | 56.1% |  | 125% |  |  | Ki (5HT2A receptor [2]; [12]): 99.6 nM; EC50 (5HT2A receptor [3]; [7]): 74 nM
7 | CN1CCC=C(c2c[nH]c3nccc(F)c23)C1 [Example 117, 4-fluoro-3-(1-methyl-1,2,5,6-tetrahydropyridin-3-yl)-1H-pyrrolo[2,3-b]pyridine] | 865 nM | 51.1% | 1360 nM | 110% |  |  | EC50 (5HT2A receptor [3]; [10]): 253 nM
8 | CN1CCC=C(c2c[nH]c3ncc(F)cc23)C1 [Example 118, 5-fluoro-3-(1-methyl-1,2,5,6-tetrahydropyridin-3-yl)-1H-pyrrolo[2,3-b]pyridine] | 49.4 nM | 56.7% | 80.3 nM | 109% |  |  | EC50 (5HT2A receptor [3]; [10]): 31.6 nM
9 | Fc1ccnc2[nH]cc(C3=CCCNC3)c12 [Example 119, 4-fluoro-3-(1,2,5,6-tetrahydropyridin-3-yl)-1H-pyrrolo[2,3-b]pyridine] | 1520 nM | 53.8% | 844 nM | 88.2% |  |  | EC50 (5HT2A receptor [3]; [10]): 193 nM
10 | Fc1cnc2[nH]cc(C3=CCCNC3)c2c1 [Example 120, 5-fluoro-3-(1,2,5,6-tetrahydropyridin-3-yl)-1H-pyrrolo[2,3-b]pyridine] | 67.4 nM | 60.4% | 53.6 nM | 100% |  |  | EC50 (5HT2A receptor [3]; [10]): 21.5 nM
11 | CCc1cccc2c(C3=CCCNC3)n[nH]c12 [Example 121, 7-ethyl-3-(1,2,5,6-tetrahydropyridin-3-yl)-1H-indazole] |  | 85.7% | 422 nM | 103% |  |  | EC50 (5HT2A receptor [1]; [13]): 75.8 nM; EC50 (5HT2A receptor [3]; [7]): 20.2 nM
12 | CCc1cccc2c(C3=CCCN(C)C3)n[nH]c12 [Example 122, 7-ethyl-3-(1-methyl-1,2,5,6-tetrahydropyridin-3-yl)-1H-indazole] | 247 nM | 42.9% | 816 nM | 102% |  |  | EC50 (5HT2A receptor [3]; [10]): 151 nM
13 | C=CCN1CCC=C(c2n[nH]c3c(Cl)cccc23)C1 [Example 124, 3-(1-allyl-1,2,5,6-tetrahydropyridin-3-yl)-7-chloro-1H-indazole] | 1010 nM | 35.3% | 159 nM | 64.9% |  |  | EC50 (5HT2A receptor [3]; [7]): 49.6 nM
14 | C#CCN1CCC=C(c2n[nH]c3c(Cl)cccc23)C1 [Example 125, 7-chloro-3-(1-(prop-2-yn-1-yl)-1,2,5,6-tetrahydropyridin-3-yl)-1H-indazole] | 291 nM | 63.3% | 1970 nM | 93.5% |  |  | EC50 (5HT2A receptor [3]; [7]): 75 nM
15 | CCN1CCC=C(c2c[nH]c3c(Cl)cccc23)C1 [Example 126, 7-chloro-3-(1-ethyl-1,2,5,6-tetrahydropyridin-3-yl)-1H-indole] |  | 62.9% |  | 96.6% |  |  | EC50 (5HT2A receptor [1]; [13]): 74.9 nM; Ki (5HT2A receptor [2]; [12]): 42.6 nM; EC50 (5HT2A receptor [3]; [7]): 40.2 nM
16 | Cc1c(F)ccc2c(C3=CCCN(C)C3)c[nH]c12 [Example 127, 6-fluoro-7-methyl-3-(1-methyl-1,2,5,6-tetrahydropyridin-3-yl)-1H-indole] |  |  |  |  | 48.9% | 90.2% | EC50 (5HT2A receptor [1]; [14]): 62.9 nM; Ki (5HT2A receptor [2]; [16]): 121 nM; EC50 (5HT2A receptor [3]; [17]): 26.6 nM
17 | CN1CCC=C(c2c[nH]c3c(Cl)c(F)ccc23)C1 [Example 128, 7-chloro-6-fluoro-3-(1-methyl-1,2,5,6-tetrahydropyridin-3-yl)-1H-indole] |  |  |  |  | 56.5% | 89.2% | EC50 (5HT2A receptor [1]; [14]): 66.1 nM; Ki (5HT2A receptor [2]; [19]): 15.3 nM; EC50 (5HT2A receptor [3]; [17]): 11.9 nM
18 | Fc1cc(Cl)c2[nH]nc(C3=CCCNC3)c2c1 [Example 129, 7-chloro-5-fluoro-3-(1,2,5,6-tetrahydropyridin-3-yl)-1H-indazole] |  |  |  |  | 95% | 88.8% | EC50 (5HT2A receptor [1]; [14]): 20.1 nM; Ki (5HT2A receptor [2]; [16]): 162 nM; EC50 (5HT2A receptor [3]; [17]): 3.1 nM
19 | CN1CCC=C(c2n[nH]c3c(Cl)cc(F)cc23)C1 [Example 130, 7-chloro-5-fluoro-3-(1-methyl-1,2,5,6-tetrahydropyridin-3-yl)-1H-indazole] |  |  |  |  | 88.5% | 91.4% | EC50 (5HT2A receptor [1]; [14]): 165 nM; Ki (5HT2A receptor [2]; [19]): 19.5 nM; EC50 (5HT2A receptor [3]; [17]): 12.9 nM
20 | Fc1ccc(Cl)c2[nH]nc(C3=CCCNC3)c12 [Example 131, 7-chloro-4-fluoro-3-(1,2,5,6-tetrahydropyridin-3-yl)-1H-indazole] |  |  |  |  | 72.7% | 106% | EC50 (5HT2A receptor [1]; [14]): 17.4 nM; Ki (5HT2A receptor [2]; [19]): 47.5 nM; EC50 (5HT2A receptor [3]; [17]): 7.2 nM
21 | CN1CCC=C(c2n[nH]c3c(Cl)ccc(F)c23)C1 [Example 132, 7-chloro-4-fluoro-3-(1-methyl-1,2,5,6-tetrahydropyridin-3-yl)-1H-indazole] |  |  |  |  | 50.9% | 95.4% | EC50 (5HT2A receptor [1]; [14]): 93 nM; Ki (5HT2A receptor [2]; [19]): 84.6 nM; EC50 (5HT2A receptor [3]; [17]): 24 nM
22 | Fc1ccc2c(C3=CCCNC3)c[nH]c2n1 [Example 133, 6-fluoro-3-(1,2,5,6-tetrahydropyridin-3-yl)-1H-pyrrolo[2,3-b]pyridine] |  |  |  |  |  |  | EC50 (5HT2A receptor [1]; [20]): 897 nM; Emax (5HT2A receptor [1]; read-out: 5HT2A β-Arr Emax (%), BRET1 beta-arrestin2 recruitment, HEK293T, normalized to 5-HT): 38.1%; Ki (5HT2A receptor [2]; [16]): 292 nM; EC50 (5HT2A receptor [3]; [21]): 166 nM; Emax (5HT2A receptor [3]; read-out: 5HTA Gq Emax (%), BRET2 Gαq dissociation, HEK293T, normalized to 5-HT): 77.2%
23 | CN1CCC=C(c2c[nH]c3nc(F)ccc23)C1 [Example 134, 6-fluoro-3-(1-methyl-1,2,5,6-tetrahydropyridin-3-yl)-1H-pyrrolo[2,3-b]pyridine] |  |  |  |  | 51.1% | 87.4% | EC50 (5HT2A receptor [1]; [20]): 1050 nM; Ki (5HT2A receptor [2]; [16]): 284 nM; EC50 (5HT2A receptor [3]; [21]): 140 nM
24 | Cc1ccnc2c(C3=CCCN(C)C3)c[nH]c12 [Example 137, 7-methyl-3-(1-methyl-1,2,5,6-tetrahydropyridin-3-yl)-1H-pyrrolo[3,2-b]pyridine] |  |  |  |  | 44.6% | 74.4% | EC50 (5HT2A receptor [1]; [20]): 372 nM; Ki (5HT2A receptor [2]; [16]): 531 nM; EC50 (5HT2A receptor [3]; [21]): 57.6 nM
25 | C1=C(c2c[nH]c3cccnc23)CNCC1 [Example 138, 3-(1,2,5,6-tetrahydropyridin-3-yl)-1H-pyrrolo[3,2-b]pyridine] |  |  |  |  | 101% | 79% | EC50 (5HT2A receptor [1]; [20]): 1420 nM; Ki (5HT2A receptor [2]; [16]): 147 nM; EC50 (5HT2A receptor [3]; [21]): 118 nM
26 | CCN1CCC=C(c2n[nH]c3c(Cl)cccc23)C1 [Example 145, 7-chloro-3-(1-ethyl-1,2,5,6-tetrahydropyridin-3-yl)-1H-indazole] |  |  |  |  | 42.4% | 64.4% | EC50 (5HT2A receptor [1]; [14]): 77 nM; Ki (5HT2A receptor [2]; [16]): 123 nM; EC50 (5HT2A receptor [3]; [17]): 23.3 nM
27 | CCN1CCC=C(c2nn(CC)c3c(Cl)cccc23)C1 [Example 146, 7-chloro-1-ethyl-3-(1-ethyl-1,2,5,6-tetrahydropyridin-3-yl)-1H-indazole] |  |  |  |  | 56.7% | 54.5% | EC50 (5HT2A receptor [1]; [20]): 1530 nM; Ki (5HT2A receptor [2]; [16]): 171 nM; EC50 (5HT2A receptor [3]; [21]): 51.7 nM
